Test results taken from patent publication US12098352B2, “Stem cell-based lung-on-chip models” (EMULATE, INC., priority 2018, dated 2024).
“Also recorded” adds a separate entry of the source.

Experiments:
[1] = system: Alveolus-Chip epithelium/endothelium barrier; assay: Barrier function assay (fluorescent dextran / Lucifer Yellow leakage) in Open-Top Alveolus-Chip; assay type: cell-based, human; settings: for preventive effect on barrier leakage: co-administered with H2O2 (10 mM), 50 nM Bardoxolone, 0.01-1.0 μM GSK, 2 μM JQ1; for reversibility of barrier breakdown after removal of stressor: additional 2 days in fresh medium
From the text: We studied interaction between different chip compartments by perturbating the system with biological and chemical stressors such as LPS, and H2O2 which are known to induce a reversible disruption of the cellular monolayer after acute administration both in vivo and in vitro. […] The presence of a strong barrier is indirectly confirmed by the presence of continuous pattern of E-cad and VE-cad in the monolayer of Alveolar epithelial and endothelial cell, respectively.
(§1) Given the limited availability of in vitro models that can closely mimic human alveolar epithelium function and/or its disease states, we explored whether a microfluidic Alveolus-Chip lined with the primary alveolar epithelial cells on an artificial lung stroma with embedded primary lung fibroblasts and pulmonary microvascular endothelial cells would model a lung injury state. To test this, we exposed the Alveolus-Chips to an acute damage generated by exposure to H2O2 under continuous infusion through the epithelium top channel, similarly to as it is […] administered in mice.
Air-Liquid interface was replaced by phenol red free MEM (GIBCO: 51200-038) and medium in the bottom fluidical spiraled channel substituted by one containing 1 mg/ml Lucifer Yellow CH, Lithium Salt (ThermoFisher: L453) or 0.1 mg/ml Dextran, Fluorescein, 3000 MW, Anionic, Lysine Fixable (ThermoFisher: D3306). Leakage of the fluorescent probe from the lumen of the spiraled channel to the epithelial compartment was collected from the outlet reservoirs after indicated hours of perfusion. The fluorescence intensity was measured with a 96-well fluorimeter at excitation/emission indicated by the manufacturer.

[2] = system: cellular monolayer barrier; assay: Barrier function in static transwell; assay type: cell-based; settings: doses up to 100 ng/ml LPS, 10 mM H2O2
[3] = system: IL-6, IL-8 and MCP-1; assay: Cytokine secretion in chip medium effluent (ELISA); assay type: cell-based, human; settings: 24 hours of exposure
From the text: We studied interaction between different chip compartments by perturbating the system with biological and chemical stressors such as LPS, and H2O2 which are known to induce a reversible disruption of the cellular monolayer after acute administration both in vivo and in vitro. […] To assess changes in the barrier function following the exposure to these insults, we added a fluorescent dye (e.g. […]—Dextran-FITC) to the endothelial compartment, which is under control condition confirmed that the endothelium and epithelium form a barrier to the dies. The presence of a strong barrier is also indirectly confirmed by the presence of continuous pattern of E-cad and VE-cad in the monolayer of Alveolar epithelial and endothelial cell, respectively. […] We also decoupled the effect of single biological component to the inflammatory response by selectively removing them from the system in an integrated matrix. […] In fact, the recorded value of IL-6 and IL-8 is not the algebraic sum of the concentration of the factors released by the single cellular components. […]
The amount of Surfactant B and C was collected from chip epithelial cell surface by PBS washing and measured by Human SFTPB/Surfactant Protein B ELISA Kit (Sandwich ELISA)—LS-F4439 and Human SFTPC/Surfactant Protein C ELISA Kit (Sandwich ELISA)—LS-F12438 (LifeSpanBioScience) following the manufacturer's protocol. The color reaction was measured at 450 nm with a photometer (specification). […] Similarly, the presence of IL-6, IL-8 and MPC in medium samples was detected by Human TLR-induced Cytokines II: Microbial-induced Multi-Analyte ELISArray Kit (MEH-008A) (Qiogen) following the manufacturer's protocol. The color reaction was measured at 450 nm with a photometer (specification). […]

[4] = system: E-Cadherin; assay: E-Cadherin / phalloidin imaging of Alveolus-Chip epithelium after H2O2; assay type: cell-based, human
Description: In one embodiment, a method is used for testing the effects of activating the Nrf2 system on pathological cell responses using an activating treatment, such as H2O2; LPS, etc. […] Control left panel, H2O2 (10 mM) (48 h) treatment, right panel. E-cadherin (green) actin (pink) and nuclei blue.
as §1
Open-Top Organ-Chips were fixed in 10% neutral buffered formalin. Endothelial cells were stained inside the chip by performinutesg the immunofluorescence steps described below directly inside the microfluidic channel. Stroma equivalents were stained as described by the step below inside the chip or alternatively extracted from the chip and processed for immunohistochemistry analysis. […]

[5] = system: human airway epithelium on-chip; settings: cited from earlier work
[6] = system: alpha smooth muscle Actin (alpha-SMA); assay: TGF-β treatment of open top Alveolar-Chip (EMT markers, immunostaining / qRT-PCR); assay type: cell-based, human; settings: TGF-β up to 72 hours, versus vehicle
From the text: E-cadherin is shown in pink.

With CC1(C)CC[C@]2(C(=O)O)CC[C@]3(C)[C@H](C(=O)C=C4[C@@]5(C)C=C(C#N)C(=O)C(C)(C)[C@@H]5CC[C@]43C)[C@@H]2C1 [Bardoxolone, Bardoxolone (methyl)] the “preventive effect on barrier leakage” value [1] was “significant preventive effect on the barrier leakage”.
With OO [H2O2] the “effect of stressor on barrier function” value ([1]; LPS 10 ng/ml and/or H2O2 10 mM) was “causes barrier breakdown and disruption of intracellular junction; also recorded: significant loss of barrier function”, the “reversibility of barrier breakdown after removal of stressor” value [1] was “barrier breakdown in our chip was reversable” and the “loss of barrier function” value [2] was “dose dependent loss of barrier function”. The “release of IL-6, IL-8 and MCP-1 in medium effluent” value [3] was “no apparent correlation”, the E-Cadherin distribution ([4]; H2O2 10 mM, 48 h) was “induces redistribution of E-Cadherin; also recorded: pronounced loss and re-distribution of E-Cadherin” and the “pneumocyte monolayer integrity (microscopy)” value ([4]; H2O2 continuous infusion through epithelium top channel) was “disruption of the pneumocyte monolayer with partial cell detachment”.
In the case of Cc1sc2c(c1C)C(c1ccc(Cl)cc1)=N[C@@H](CC(=O)OC(C)(C)C)c1nnc(C)n1-2 [JQ1, thienotriazolodiazepine], the “preventive effect on barrier leakage” value [1] is reported as “significant preventive effect on the barrier leakage”.
In the case of C[C@@H]1CCN(C(=O)CC#N)C[C@@H]1N(C)c1ncnc2[nH]ccc12 [Tofacitinib], the “effect on IL-13 induced phenotype” value [5] is listed as “suppressed”.
For “IL-13: cytokine perfused to mimic a Th2 enriched microenvironment”, the “airway phenotype on IL-13 perfusion through the vascular channel” value [5] is listed as “significant airway remodeling with goblet cells hyperplasia”.
With “TGF-β: transforming growth factor beta1, cytokine inducing epithelial to mesenchymal transition” the “reversibility of barrier breakdown after removal of stressor” value [1] was “barrier breakdown in our chip was reversable”, the ICAM-1 staining [6] was “lack of ICAM-1” and the alpha-SMA induction [6] was “induction of alpha smooth muscle Actin (alpha-SMA)”.
